Source: PubChem BioAssay AID1919014 (Molecular Pharmacology Branch, DTP, NCI, 2023)
“And” between values parts separate entries of the source, which are not always exact repeats. Equal entries are not always repeated.

Test system: NCI-H1341 complex spheroids, percent test/control
Test: Anticancer human tumor NCI-H1341 cell line growth inhibition [AhR];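 note: spheroids exposed to agents for seven days before readout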
Conditions: for viability, T/C: stronger effect = lower value
Outline: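 Spheroids combined tumor cells with HUVEC endothelial cells and human MSCs as stroma. AhR antagonists were paired with standard or investigational drugs, each dosed in half-log steps down from near clinical Cmax, or from 10 microM where Cmax was unknown.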

[1] = curve of first compound, second compound 0.1 µM
[2] = curve of first compound, second compound 0.316 µM
[3] = curve of first compound, second compound 1 µM
[4] = curve of first compound, second compound 3.16 µM
[5] = curve of first compound, second compound 10 µM
[6] = second compound 0.1 µM, first compound 0.0316 µM
[7] = second compound 0.1 µM, first compound 0.1 µM
[8] = second compound 0.316 µM, first compound 0.0316 µM
[9] = second compound 0.316 µM, first compound 0.1 µM
[10] = second compound 1 µM, first compound 0.0316 µM
[11] = second compound 1 µM, first compound 0.1 µM
[12] = second compound 3.16 µM, first compound 0.0316 µM
[13] = second compound 3.16 µM, first compound 0.1 µM
[14] = second compound 10 µM, first compound 0.0316 µM
[15] = second compound 10 µM, first compound 0.1 µM
[16] = second compound 0.1 µM, first compound 0.316 µM
[17] = second compound 0.1 µM, first compound 1 µM
[18] = second compound 0.1 µM, first compound 3.16 µM
[19] = second compound 0.1 µM, first compound 10 µM
[20] = second compound 0.316 µM, first compound 0.316 µM
[21] = second compound 0.316 µM, first compound 1 µM
[22] = second compound 0.316 µM, first compound 3.16 µM
[23] = second compound 0.316 µM, first compound 10 µM
[24] = second compound 1 µM, first compound 0.316 µM
[25] = second compound 1 µM, first compound 1 µM
[26] = second compound 1 µM, first compound 3.16 µM
[27] = second compound 1 µM, first compound 10 µM
[28] = second compound 3.16 µM, first compound 0.316 µM
[29] = second compound 3.16 µM, first compound 1 µM
[30] = second compound 3.16 µM, first compound 3.16 µM
[31] = second compound 3.16 µM, first compound 10 µM
[32] = second compound 10 µM, first compound 0.316 µM
[33] = second compound 10 µM, first compound 1 µM
[34] = second compound 10 µM, first compound 3.16 µM
[35] = second compound 10 µM, first compound 10 µM

Cn1ncnc1C1c2n[nH]c(=O)c3cc(F)cc(c23)NC1c1ccc(F)cc1 (configuration not stated) + CC(CO)NC(=O)c1cc(-c2ccc(Cl)cc2)nn(-c2cnn(C)c2)c1=O
IC50 [1]: > 100 nM
IC50 [2]: > 100 nM
IC50 [3]: > 100 nM
IC50 [4]: > 100 nM
IC50 [5]: > 100 nM
viability, T/C (second compound 0.1 µM, first compound 0.000316 µM): 79.2%
viability, T/C (second compound 0.1 µM, first compound 0.001 µM): 83.4%
viability, T/C (second compound 0.1 µM, first compound 0.00316 µM): 84%
viability, T/C (second compound 0.1 µM, first compound 0.01 µM): 73.5%
viability, T/C [6]: 83.2%
viability, T/C [7]: 77.6%
viability, T/C (second compound 0.316 µM, first compound 0.000316 µM): 85%
viability, T/C (second compound 0.316 µM, first compound 0.001 µM): 95.7%
viability, T/C (second compound 0.316 µM, first compound 0.00316 µM): 88.8%
viability, T/C (second compound 0.316 µM, first compound 0.01 µM): 76.9%
viability, T/C [8]: 91.8%
viability, T/C [9]: 72.3%
viability, T/C (second compound 1 µM, first compound 0.000316 µM): 72.5%
viability, T/C (second compound 1 µM, first compound 0.001 µM): 95.4%
viability, T/C (second compound 1 µM, first compound 0.00316 µM): 77.5%
viability, T/C (second compound 1 µM, first compound 0.01 µM): 85.7%
viability, T/C [10]: 80.5%
viability, T/C [11]: 73.9%
viability, T/C (second compound 3.16 µM, first compound 0.000316 µM): 87.5%
viability, T/C (second compound 3.16 µM, first compound 0.001 µM): 93.8%
viability, T/C (second compound 3.16 µM, first compound 0.00316 µM): 77.1%
viability, T/C (second compound 3.16 µM, first compound 0.01 µM): 62.4%
viability, T/C [12]: 76.2%
viability, T/C [13]: 65.9%
viability, T/C (second compound 10 µM, first compound 0.000316 µM): 72.4%
viability, T/C (second compound 10 µM, first compound 0.001 µM): 84.2%
viability, T/C (second compound 10 µM, first compound 0.00316 µM): 81%
viability, T/C (second compound 10 µM, first compound 0.01 µM): 65.2%
viability, T/C [14]: 66.1%
viability, T/C [15]: 69.2%

COc1ccc([C@@H](O)c2cc(-c3ncnc4cc(N5CCOCC5)ccc34)c(F)cc2Cl)nn1 + CC(CO)NC(=O)c1cc(-c2ccc(Cl)cc2)nn(-c2cnn(C)c2)c1=O
IC50 [1]: 1470 nM
IC50 [2]: 1140 nM
IC50 [3]: 1060 nM
IC50 [4]: 1220 nM
IC50 [5]: 691 nM
viability, T/C [6]: 101%
viability, T/C [7]: 89.7%
viability, T/C [16]: 82.5%
viability, T/C [17]: 61%
viability, T/C [18]: 29.6%
viability, T/C [19]: 8.94%
viability, T/C [8]: 88%
viability, T/C [9]: 93.7%
viability, T/C [20]: 72.7%
viability, T/C [21]: 48.8%
viability, T/C [22]: 32.7%
viability, T/C [23]: 8.73%
viability, T/C [10]: 89.7%
viability, T/C [11]: 83.8%
viability, T/C [24]: 76.6%
viability, T/C [25]: 48.2%
viability, T/C [26]: 28.2%
viability, T/C [27]: 8.67%
viability, T/C [12]: 79.6%
viability, T/C [13]: 84.8%
viability, T/C [28]: 85.9%
viability, T/C [29]: 52.7%
viability, T/C [30]: 24%
viability, T/C [31]: 7.24%
viability, T/C [14]: 90.2%
viability, T/C [15]: 75.8%
viability, T/C [32]: 68.2%
viability, T/C [33]: 41.5%
viability, T/C [34]: 22.1%
viability, T/C [35]: 7.39%

O=C(c1cc(Cc2n[nH]c(=O)c3ccccc23)ccc1F)N1CCN(C(=O)C2CC2)CC1 + Cc1ccccc1N=Nc1ccc(NC(=O)c2ccnn2C)c(C)c1
IC50 [1]: > 10000 nM
IC50 [2]: > 10000 nM
IC50 [3]: > 10000 nM
IC50 [4]: > 10000 nM
IC50 [5]: > 10000 nM
viability, T/C [6]: 94%
viability, T/C [7]: 83.4%
viability, T/C [16]: 93.9%
viability, T/C [17]: 86.4%
viability, T/C [18]: 104%
viability, T/C [19]: 69.4%
viability, T/C [8]: 87.4%
viability, T/C [9]: 84.5%
viability, T/C [20]: 97.4%
viability, T/C [21]: 71.2%
viability, T/C [22]: 72.8%
viability, T/C [23]: 59.1%
viability, T/C [10]: 94.2%
viability, T/C [11]: 97.8%
viability, T/C [24]: 68.8%
viability, T/C [25]: 78.3%
viability, T/C [26]: 81.2%
viability, T/C [27]: 69.1%
viability, T/C [12]: 67.6%
viability, T/C [13]: 72.1%
viability, T/C [28]: 65.7%
viability, T/C [29]: 74%
viability, T/C [30]: 60.9%
viability, T/C [31]: 57.3%
viability, T/C [14]: 46.2%
viability, T/C [15]: 50.3%
viability, T/C [32]: 56.3%
viability, T/C [33]: 58.6%
viability, T/C [34]: 51.2%
viability, T/C [35]: 47.5%

Nc1ccccc1NC(=O)c1ccc(CNC(=O)OCc2cccnc2)cc1 + Cc1ccccc1N=Nc1ccc(NC(=O)c2ccnn2C)c(C)c1
IC50 [1]: 582 nM
IC50 [2]: 604 nM
IC50 [3]: 596 nM
IC50 [4]: 647 nM
IC50 [5]: 380 nM
viability, T/C [6]: 91.8%
viability, T/C [7]: 84.5%
viability, T/C [16]: 65.2%
viability, T/C [17]: 37.4%
viability, T/C [18]: 9.11%
viability, T/C [19]: 0.66%
viability, T/C [8]: 89.9%
viability, T/C [9]: 88.7%
viability, T/C [20]: 70.3%
viability, T/C [21]: 33.6%
viability, T/C [22]: 9.54%
viability, T/C [23]: 1.08%
viability, T/C [10]: 120%
viability, T/C [11]: 98.6%
viability, T/C [24]: 76.3%
viability, T/C [25]: 30.1%
viability, T/C [26]: 7.04%
viability, T/C [27]: 0.78%
viability, T/C [12]: 85.9%
viability, T/C [13]: 86.7%
viability, T/C [28]: 62%
viability, T/C [29]: 43.1%
viability, T/C [30]: 12.5%
viability, T/C [31]: 0.88%
viability, T/C [14]: 49.7%
viability, T/C [15]: 53.3%
viability, T/C [32]: 58.7%
viability, T/C [33]: 37.8%
viability, T/C [34]: 18.8%
viability, T/C [35]: 3.01%

O=C(C=Cn1cnc(-c2cc(C(F)(F)F)cc(C(F)(F)F)c2)n1)NNc1cnccn1
viability, T/C (compound 0.00949 µM): 92.3% and 73.3% and 75.8%
viability, T/C (compound 0.03 µM): 77.8% and 68.4% and 79.9%
viability, T/C (compound 0.0949 µM): 61.5% and 30% and 30.5%
viability, T/C (compound 0.3 µM): 12.5% and 17.1% and 6.76%
viability, T/C (compound 0.949 µM): 8.28% and 8.73% and 4.72%
viability, T/C (compound 3 µM): 6.13% and 7.12% and 2.87%
IC50 (curve of compound): 122 nM and 51.9 nM and 59 nM

Nc1ncn(C2CC(O)C(CO)S2)c(=O)n1 (configuration not stated) + Cc1cncc(-c2nc(NCCc3c[nH]c4ccccc34)c3ncn(C(C)C)c3n2)c1
IC50 [1]: > 300 nM
IC50 [2]: 282 nM
IC50 [3]: > 300 nM
IC50 [4]: > 300 nM
IC50 [5]: < 0.949 nM
viability, T/C (second compound 0.1 µM, first compound 0.000949 µM): 102%
viability, T/C (second compound 0.1 µM, first compound 0.003 µM): 82.9%
viability, T/C (second compound 0.1 µM, first compound 0.00949 µM): 91.5%
viability, T/C (second compound 0.1 µM, first compound 0.03 µM): 88.3%
viability, T/C (second compound 0.1 µM, first compound 0.0949 µM): 67.7%
viability, T/C (second compound 0.1 µM, first compound 0.3 µM): 50.2%
viability, T/C (second compound 0.316 µM, first compound 0.000949 µM): 84.9%
viability, T/C (second compound 0.316 µM, first compound 0.003 µM): 89.5%
viability, T/C (second compound 0.316 µM, first compound 0.00949 µM): 79.6%
viability, T/C (second compound 0.316 µM, first compound 0.03 µM): 73.8%
viability, T/C (second compound 0.316 µM, first compound 0.0949 µM): 71.8%
viability, T/C (second compound 0.316 µM, first compound 0.3 µM): 47.8%
viability, T/C (second compound 1 µM, first compound 0.000949 µM): 69.8%
viability, T/C (second compound 1 µM, first compound 0.003 µM): 87.3%
viability, T/C (second compound 1 µM, first compound 0.00949 µM): 80.7%
viability, T/C (second compound 1 µM, first compound 0.03 µM): 77.2%
viability, T/C (second compound 1 µM, first compound 0.0949 µM): 67.5%
viability, T/C (second compound 1 µM, first compound 0.3 µM): 58%
viability, T/C (second compound 3.16 µM, first compound 0.000949 µM): 93.7%
viability, T/C (second compound 3.16 µM, first compound 0.003 µM): 97.9%
viability, T/C (second compound 3.16 µM, first compound 0.00949 µM): 86.9%
viability, T/C (second compound 3.16 µM, first compound 0.03 µM): 84.7%
viability, T/C (second compound 3.16 µM, first compound 0.0949 µM): 82.3%
viability, T/C (second compound 3.16 µM, first compound 0.3 µM): 63.8%
viability, T/C (second compound 10 µM, first compound 0.000949 µM): 45%
viability, T/C (second compound 10 µM, first compound 0.003 µM): 44.2%
viability, T/C (second compound 10 µM, first compound 0.00949 µM): 42.1%
viability, T/C (second compound 10 µM, first compound 0.03 µM): 35.8%
viability, T/C (second compound 10 µM, first compound 0.0949 µM): 33.1%
viability, T/C (second compound 10 µM, first compound 0.3 µM): 26%
